# Measured values from ChEMBL document CHEMBL1201862, “PubChem BioAssay data set” (2004).
# Calls of active or inactive are those of the source.
# Legend:
# [1] = viability loss in human Jurkat cells – cell-based, luminescence, cytotoxicity control for P. falciparum gametocyte viability project, dose response (AID 1117277); type: functional;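 also: potency reflects loss of cellular ATP meaning fewer viable cells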
# [2] = viability inhibitors of stage V gametocytes – luminescence, dose response (AID 1117278); type: functional, cell-based;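 also: gametocytes exposed to compound for 24 hours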
# [3] = molecular target: Voltage-dependent T-type calcium channel subunit alpha-1H (Homo sapiens, UniProt O95180); type: functional;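 also: channel activity triggered by adding a high calcium stimulation buffer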
# [4] = Luminescence Cell-Based Dose Response HTS to Identify Activators of Luciferase Translation or Activity in H4 […] Cells. [Related pubchem assays: 1829 (Project Summary), 1814 (Primary HTS)]; type: functional
# [5] = molecular target: T1, Polyadenylate-binding protein 1 (Homo sapiens, UniProt P11940); experiment: MLLE binding blockers, Cy5 peptide tracer – biochemical, fluorescence polarization, Cy5-PAM2 peptide, secondary, miRNA deadenylation inhibitor project, dose response (AID 602260); type: functional; details: read-out: IC50_Mean
# T1 sequence (P11940 whole entry): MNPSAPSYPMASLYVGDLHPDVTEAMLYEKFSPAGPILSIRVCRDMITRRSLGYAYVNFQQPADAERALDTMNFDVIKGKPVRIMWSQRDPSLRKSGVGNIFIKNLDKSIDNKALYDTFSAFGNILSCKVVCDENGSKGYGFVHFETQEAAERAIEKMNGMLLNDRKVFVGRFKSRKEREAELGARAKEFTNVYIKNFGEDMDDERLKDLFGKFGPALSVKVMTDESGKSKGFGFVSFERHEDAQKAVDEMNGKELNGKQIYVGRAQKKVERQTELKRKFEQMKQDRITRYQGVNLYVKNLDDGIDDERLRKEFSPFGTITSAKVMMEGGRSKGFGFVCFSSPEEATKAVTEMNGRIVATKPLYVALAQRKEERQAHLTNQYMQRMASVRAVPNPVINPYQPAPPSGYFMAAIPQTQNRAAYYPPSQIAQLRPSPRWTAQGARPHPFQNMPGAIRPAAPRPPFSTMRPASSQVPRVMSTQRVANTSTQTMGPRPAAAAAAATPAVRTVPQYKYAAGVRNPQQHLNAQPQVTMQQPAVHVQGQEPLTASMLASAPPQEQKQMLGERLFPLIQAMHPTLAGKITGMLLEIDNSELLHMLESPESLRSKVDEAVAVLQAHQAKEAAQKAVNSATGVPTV
# [6] = Luminescence Cell-Based Dose Confirmation to Identify Activators of 5'UTR Stem-Loop Driven Alpha-Synuclein mRNA Translation in H4 Neuroglioblastoma Cells. [Related pubchem assays: 1829 (Project Summary), 1814 (Primary HTS)]; type: functional
# [7] = molecular target: T1, Polyadenylate-binding protein 1; experiment: MLLE domain peptide-binding blockers, IC50 – biochemical, fluorescence polarization, FITC-PAM2 peptide, dose response (AID 602259); type: functional; details: read-out: IC50_Mean
# [8] = Luminescence Cell-Based Dose Response to Identify Activators of 5'UTR Stem-Loop Driven Prion Protein mRNA Translation in H4-C Neuroglioblastoma Cells. [Related pubchem assays: 1829 (Project Summary), 1814 (Primary HTS)]; type: functional
# [9] = molecular target: Oxysterols receptor LXR-beta (Homo sapiens, UniProt P55055); type: functional, cell-based;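 also: Cell-based luminescence dose-response assay of agonist activity at LXR, run as a confirmatory counterscreen to a daf-12 agonist screen; HEK293 cells with Gal4-LXR fusion and GAL4-driven luciferase reporter; agonist potency from rising luciferase signal of a Gal4-LXR reporter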
# Oxysterols receptor LXR-beta, sequence (P55055 whole entry, the tested form may be a part): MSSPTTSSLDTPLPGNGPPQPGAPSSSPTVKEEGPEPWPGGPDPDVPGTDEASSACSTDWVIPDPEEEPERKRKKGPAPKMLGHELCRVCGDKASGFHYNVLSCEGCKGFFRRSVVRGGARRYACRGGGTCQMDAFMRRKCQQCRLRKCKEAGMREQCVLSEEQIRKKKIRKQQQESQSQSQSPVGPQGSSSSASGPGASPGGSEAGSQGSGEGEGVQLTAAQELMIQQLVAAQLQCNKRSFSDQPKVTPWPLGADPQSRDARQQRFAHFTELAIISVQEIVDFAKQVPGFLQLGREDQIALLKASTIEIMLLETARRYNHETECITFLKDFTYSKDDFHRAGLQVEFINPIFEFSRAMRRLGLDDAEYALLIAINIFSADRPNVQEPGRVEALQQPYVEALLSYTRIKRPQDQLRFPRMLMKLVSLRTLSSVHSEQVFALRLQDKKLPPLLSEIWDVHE
# [10] = test system: H4; experiment: Luminescence Cell-Based Dose Response HTS to Identify Activators of 5'UTR Stem-Loop Driven Prion Protein mRNA Translation in H4 Neuroglioblastoma Cells. [Related pubchem assays: 1829 (Project Summary), 1814 (Primary HTS)]; type: functional; details: Homo sapiens
# [11] = Luminescence Cell-Based Dose Response to Identify Activators of Luciferase Translation or Activity in H4-C Neuroglioblastoma Cells. [Related pubchem assays: 1829 (Project Summary), 1814 (Primary HTS)]; type: functional
# [12] = cells
# [13] = molecular target: Sphingosine 1-phosphate receptor 2 (Homo sapiens, UniProt O95136); experiment: Dose Response Cell Based Assay for Agonists of the S1P2 Receptor. [Related pubchem assays: 729, 736, 843 ]; type: functional
# Sphingosine 1-phosphate receptor 2, sequence (O95136 whole entry): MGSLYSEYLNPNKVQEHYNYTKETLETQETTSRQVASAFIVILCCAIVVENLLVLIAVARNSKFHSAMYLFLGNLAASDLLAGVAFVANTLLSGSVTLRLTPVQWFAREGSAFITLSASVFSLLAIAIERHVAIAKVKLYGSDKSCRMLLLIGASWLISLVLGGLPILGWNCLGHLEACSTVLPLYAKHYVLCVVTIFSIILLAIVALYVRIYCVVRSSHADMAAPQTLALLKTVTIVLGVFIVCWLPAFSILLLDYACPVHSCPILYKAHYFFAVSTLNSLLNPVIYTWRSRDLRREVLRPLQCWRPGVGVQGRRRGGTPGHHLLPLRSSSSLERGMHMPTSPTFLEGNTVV
# [14] = fluconazole-exposed Candida albicans growth modulators – fluorescence, retest, confirmation (AID 2467); type: functional, cell-based
# [15] = NIH-3T3 fibroblast cytotoxicity, dose response, cytotoxicity control, cell-based, fluorescence, Alamar Blue, secondary assay (AID 2327); type: functional;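 also: NIH-3T3 mouse fibroblasts cultured with fluconazole at 8 µg/mL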
# [16] = reduced cellular PGC1a acetyl-lysine signal – cell-based, cherry-picked samples, dose response (AID 720514); type: functional;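 also: potency may reflect raised or lowered acetylation signal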
# [17] = molecular target: Cytochrome P450 2D6 (Homo sapiens, UniProt P10635);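 also: CYP2D6 member of a cytochrome P450 panel assay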
# Cytochrome P450 2D6, sequence (P10635 whole entry): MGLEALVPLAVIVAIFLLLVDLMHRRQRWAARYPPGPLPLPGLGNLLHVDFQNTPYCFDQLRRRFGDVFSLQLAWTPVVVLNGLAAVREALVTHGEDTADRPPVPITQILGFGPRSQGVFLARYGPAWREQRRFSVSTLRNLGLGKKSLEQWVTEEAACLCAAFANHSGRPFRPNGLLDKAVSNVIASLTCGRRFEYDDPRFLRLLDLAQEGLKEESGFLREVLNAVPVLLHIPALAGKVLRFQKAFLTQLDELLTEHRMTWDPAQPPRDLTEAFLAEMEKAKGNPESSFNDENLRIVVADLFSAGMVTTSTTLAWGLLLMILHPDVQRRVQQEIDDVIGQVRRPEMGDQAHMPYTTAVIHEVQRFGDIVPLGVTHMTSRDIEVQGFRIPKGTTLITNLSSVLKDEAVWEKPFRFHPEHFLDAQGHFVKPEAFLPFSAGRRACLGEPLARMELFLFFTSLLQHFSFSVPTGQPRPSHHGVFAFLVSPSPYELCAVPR
# [18] = cells; type: functional
# [19] = microbe, parasite or virus in culture; type: functional; details: Mycobacterium tuberculosis
# [20] = molecular target: Cytochrome P450 2C9 (Homo sapiens, UniProt P11712)
# Cytochrome P450 2C9, sequence (P11712 whole entry): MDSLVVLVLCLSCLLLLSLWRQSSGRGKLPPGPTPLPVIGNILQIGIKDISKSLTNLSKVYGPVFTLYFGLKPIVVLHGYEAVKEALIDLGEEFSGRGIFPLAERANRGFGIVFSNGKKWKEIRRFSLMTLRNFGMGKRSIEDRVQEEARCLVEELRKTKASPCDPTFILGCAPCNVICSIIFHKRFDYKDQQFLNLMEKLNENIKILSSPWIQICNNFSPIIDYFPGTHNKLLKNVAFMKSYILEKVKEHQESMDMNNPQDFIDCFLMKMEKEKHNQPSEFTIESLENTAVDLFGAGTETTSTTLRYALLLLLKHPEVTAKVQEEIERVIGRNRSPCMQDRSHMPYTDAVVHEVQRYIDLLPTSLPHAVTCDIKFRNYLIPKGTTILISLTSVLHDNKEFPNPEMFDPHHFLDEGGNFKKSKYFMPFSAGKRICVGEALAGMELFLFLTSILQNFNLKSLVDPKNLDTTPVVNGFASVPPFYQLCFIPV
# [21] = THP-1 cell cytotoxicity, dose response, cytotoxicity control for non-replicating M. tuberculosis project (AID 489025); type: functional
# [22] = molecular target: Ephrin type-A receptor 4 (Mus musculus, UniProt Q03137); experiment: EphA4 ligand-binding antagonists – biochemical, colorimetric, mouse EphA4, primary screen (AID 689); type: functional
# Ephrin type-A receptor 4, sequence (Q03137 whole entry): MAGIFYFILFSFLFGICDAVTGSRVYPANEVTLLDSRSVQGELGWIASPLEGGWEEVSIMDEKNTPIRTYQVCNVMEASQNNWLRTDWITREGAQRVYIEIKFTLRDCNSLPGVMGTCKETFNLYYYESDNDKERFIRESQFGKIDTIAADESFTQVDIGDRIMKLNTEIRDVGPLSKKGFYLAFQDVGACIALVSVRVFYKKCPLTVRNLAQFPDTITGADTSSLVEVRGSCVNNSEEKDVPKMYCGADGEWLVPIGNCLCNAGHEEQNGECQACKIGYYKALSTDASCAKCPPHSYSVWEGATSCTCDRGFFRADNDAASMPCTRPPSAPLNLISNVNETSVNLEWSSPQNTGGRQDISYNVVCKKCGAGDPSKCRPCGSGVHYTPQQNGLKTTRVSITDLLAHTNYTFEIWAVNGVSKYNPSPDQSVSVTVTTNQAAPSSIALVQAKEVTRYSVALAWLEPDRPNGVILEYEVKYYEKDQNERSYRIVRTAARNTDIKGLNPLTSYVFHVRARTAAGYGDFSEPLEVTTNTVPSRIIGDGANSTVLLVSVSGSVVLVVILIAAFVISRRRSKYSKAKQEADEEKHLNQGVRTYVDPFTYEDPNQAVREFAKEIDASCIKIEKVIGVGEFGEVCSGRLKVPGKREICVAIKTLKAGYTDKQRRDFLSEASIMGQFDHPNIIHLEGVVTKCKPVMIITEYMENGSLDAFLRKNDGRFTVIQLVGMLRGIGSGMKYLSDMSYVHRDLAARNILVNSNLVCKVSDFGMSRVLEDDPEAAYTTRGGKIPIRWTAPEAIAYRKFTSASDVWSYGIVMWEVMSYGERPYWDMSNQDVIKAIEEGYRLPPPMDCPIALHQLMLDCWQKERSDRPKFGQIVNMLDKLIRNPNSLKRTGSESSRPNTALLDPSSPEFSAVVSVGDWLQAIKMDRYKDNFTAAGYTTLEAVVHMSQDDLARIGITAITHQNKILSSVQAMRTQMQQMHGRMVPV
# [23] = molecular target: T2, Tyrosine-protein phosphatase non-receptor type 7 (Homo sapiens, UniProt P35236); experiment: HePTP tyrosine phosphatase activity blockers – biochemical, absorbance, leukemia target, primary screen (AID 521); type: functional
# T2 sequence (P35236 whole entry): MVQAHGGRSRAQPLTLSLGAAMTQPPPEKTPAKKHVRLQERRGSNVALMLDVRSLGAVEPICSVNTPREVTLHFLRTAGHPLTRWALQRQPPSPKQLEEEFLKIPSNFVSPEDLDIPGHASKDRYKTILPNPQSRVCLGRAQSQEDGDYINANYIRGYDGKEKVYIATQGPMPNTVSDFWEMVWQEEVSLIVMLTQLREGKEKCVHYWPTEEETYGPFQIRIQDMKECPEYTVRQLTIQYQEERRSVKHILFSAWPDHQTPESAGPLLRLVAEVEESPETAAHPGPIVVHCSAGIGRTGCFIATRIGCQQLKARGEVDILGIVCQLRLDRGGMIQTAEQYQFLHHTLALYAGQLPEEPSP
# [24] = molecular target: T3, Estrogen receptor beta (Homo sapiens, UniProt Q92731);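 also: recombinant ER-beta bound to coactivator SRC1 peptide in presence of estradiol agonist; inhibitors block coactivator peptide binding and lower the FRET signal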
# T3 sequence (Q92731 whole entry): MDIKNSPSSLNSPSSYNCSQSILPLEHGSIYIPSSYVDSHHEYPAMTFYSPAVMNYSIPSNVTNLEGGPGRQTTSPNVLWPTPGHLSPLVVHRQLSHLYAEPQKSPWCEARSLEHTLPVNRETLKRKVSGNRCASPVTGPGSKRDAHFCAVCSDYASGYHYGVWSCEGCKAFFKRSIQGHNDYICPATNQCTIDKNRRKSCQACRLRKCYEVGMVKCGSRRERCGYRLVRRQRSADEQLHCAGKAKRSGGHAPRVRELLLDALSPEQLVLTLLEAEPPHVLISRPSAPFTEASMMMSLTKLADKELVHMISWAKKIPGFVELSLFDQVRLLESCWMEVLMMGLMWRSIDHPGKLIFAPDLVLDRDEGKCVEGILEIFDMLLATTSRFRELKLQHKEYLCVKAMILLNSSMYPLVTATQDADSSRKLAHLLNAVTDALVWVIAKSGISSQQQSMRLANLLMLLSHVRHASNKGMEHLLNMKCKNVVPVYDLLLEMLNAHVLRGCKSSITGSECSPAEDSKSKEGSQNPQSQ
# [25] = molecular target: T3, Estrogen receptor beta; experiment: blockers of SRC-3 recruitment to ERβ – biochemical, ELISA, streptavidin-HRP readout, orthogonal assay, confirmation (AID 1060)
# [26] = molecular target: T4, Low molecular weight phosphotyrosine protein phosphatase (Homo sapiens, UniProt P24666); type: functional; details: read-out: IC50_Mean;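 also: Dose-response confirmation assay measuring inhibition of LMPTP enzyme activity by fluorescence intensity read-out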
# T4 sequence (P24666 whole entry): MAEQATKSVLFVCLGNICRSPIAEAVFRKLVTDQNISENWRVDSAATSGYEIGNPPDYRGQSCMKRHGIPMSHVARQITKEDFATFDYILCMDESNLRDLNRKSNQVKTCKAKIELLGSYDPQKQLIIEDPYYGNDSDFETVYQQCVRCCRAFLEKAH
# [27] = Trypanosoma cruzi growth suppression in host cells – NIH3T3 host cells, beta-gal luminescence, confirmation (AID 2044); type: functional, cell-based;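 also: intracellular parasites grown in NIH/3T3 mouse fibroblasts as host cells; luminescent beta-galactosidase reporter signal from transgenic T. cruzi replicating inside host cells; inhibitors lower the luminescence signal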
# [28] = NIH3T3 cell viability loss – ATP luminescence, mouse fibroblasts, counter-screen, dose response (AID 2010); type: functional, cell-based;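 also: cells exposed to compound for about 90 hours before reading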
structure (smiles),measurement,setting,value
COc1ccc(OC)c(NC(=O)C2CCN(Cc3cnn(-c4ccccc4)c3-n3cccc3)CC2)c1,IC50,[1],> 83.3 µM (inactive)
same,IC50,[2],> 109 µM (inactive)
same,EC50,[3],2.48 µM (active)
Cc1cccnc1NC(=S)NC(=O)c1cccs1,EC50,[4],< 0.1 µM (active)
same,IC50,[5],> 66 µM (inactive)
same,EC50,[6],0.161 µM (active)
same,IC50,[7],> 66 µM (inactive)
same,EC50,[8],0.464 µM (active)
same,EC50,[9],> 67.5 µM (inactive)
same,EC50,[10],14.9 µM (active)
same,EC50,[11],0.19 µM (active)
same,EC50,[12],> 67.5 µM (inactive)
c1ccc(-c2nc3ccccn3c2NCc2ccc3c(c2)OCO3)cc1,EC50,[13],> 50 µM (not active)
Sc1ncnc2c1cnn2Cc1ccccc1,EC50,[14],3.56 µM (active)
same,EC50,[15],> 150 µM (inactive)
same,AC50,[16],11.2 µM (active)
CCCCCCOC(=O)C(C#N)c1nc2ccccc2nc1N1CCN(CC)CC1 (stereo not given),AC50,[17],25.1 µM (inconclusive)
same,IC50,[18],13.6 µM (active)
same,CC50,[19],19.7 µM (active)
same,AC50,[20],7.94 µM (inconclusive)
same,CC50,[21],24.7 µM (active)
same,IC50,[22],> 100 µM (not active)
CCc1nc2sc3ccccc3c(=O)c2c(=O)n1Cc1ccco1,IC50,[23],15.1 µM (active)
same,IC50,[24],6.59 µM (active)
same,IC50,[25],12.6 µM (not active)
same,IC50,[26],52.2 µM (inactive)
CC(C)C(Nc1ncnc2c1oc1ccccc12)C(=O)O (stereo not given),IC50,[1],> 83.3 µM (inactive)
same,IC50,[2],> 109 µM (inactive)
same,EC50,[27],12.6 µM (active)
same,EC50,[28],10.8 µM (active)
